tested on: causal fungus of apple tree scab (Venturia inaequalis); assay: Test on the controlling efficacy against apple tree scab; type: in vivo; settings: apple seedling, foliar application, 4-fold concentration 200 ppm, 14 days after inoculation
Text: A seedling of an apple tree (the variety: Ohrin) grown in a pot was subjected to foliar application with a diluted emulsion of the emulsifiable concentrate of the compound of the present invention prepared in accordance with Formulation Example 1, which diluted emulsion was produced by diluting the concentrate with water to the specifically determined volume. On the following day after the application, the seedling was inoculated by spraying with a spore suspension of the causal fungus of apple tree scab (Venturia inaequalis) as obtained by culture on the PSA medium and maintained at 20° C. under humid conditions. Fourteen days after the inoculation, the protective value (%) was determined in accordance with the equation (1), and the controlling efficacy was assessed according the below-described criteria of judgment. [formula]

SMILES | controlling efficacy, criteria of judgment (protective value)
O=C(NCCc1cccc(C(F)(F)F)c1)c1c(Cl)cccc1Cl [comparison compound A, 2,6-dichloro-N-[2-{3-(trifluoromethyl)phenyl}ethyl]benzamide] | 0 (Less than 9% in protective value)

tested on: southern root-knot nematode (Meloidogyne incognita); assay: Test on the controlling efficacy against southern root-knot nematode; type: in vivo; design: key: A: No root knot.; B: Apparently smaller number of root knots than in non-treated section were present.; C: Root knots in the number equivalent to or higher than in non-treated section were present; settings: melon nursery plant, plant foot irrigation, 500 ppm, 8 days after inoculation
Protocol: An emulsion prepared by diluting an emulsifiable concentrate of the compound of the present invention, which was prepared in accordance with Formulation Example 1, to 500 ppm was irrigated to the plant foot of a pot-cultivated nursery plant raised from the seed of melon. One day after the irrigation, an aqueous suspension (about 500 nematodes/ml) of southern root-knot nematode was inoculated (soil irrigation) to a treated section and a non-treated section, and the pot was placed in a greenhouse at 25° C. Eight days after the inoculation, the root was washed with water, the number of root knots was counted, and the effect was assessed according to the following criteria of judgment. • Criteria of Judgment • A: No root knot. • B: Apparently smaller number of root knots than in non-treated section were present. • C: Root knots in the number equivalent to or higher than in non-treated section were present.

SMILES | effect on number of root knots, criteria of judgment
O=C(NCCc1ccc(Cl)cc1Cl)c1ccccc1C(F)(F)F [1-16] | B
O=C(NCC1(c2ccc(Cl)cc2Cl)CC1)c1ccccc1C(F)(F)F [1-34] | B
O=C(NCC1(c2ccc(Cl)cc2Cl)CC1)c1nccnc1Cl [3′-43] | B
CC(Cc1ccc(Cl)cc1Cl)NC(=O)c1nccnc1Cl (stereo not drawn) [3′-44] | B
Cc1nccnc1C(=O)NCCc1ccc(-c2ccc(OC(F)(F)F)cc2)cc1 [3″-48] | B
